Patent US20070060544A1, “4-Nitro-2-[(4'-methoxy)-phenoxy]-methanesulfonanilide derivatives and their pharmaceutical use” (priority 2002, published 2007)

Experiments:
[1] = acute oral toxicity in mice; details: orally administered
[2] = system: carrageenin-induced paw inflammation; test: paw inflammation induced by carrageenin in mice; type: in vivo; details: for anti-inflammatory effects relative to nimesulide (times stronger): 0.243 mM/kg vs nimesulide 0.243 mM/kg; for anti-inflammatory effects relative to nimesulide (times stronger) / Paw Swelling mm (M ± SD) at 3 hours: at 3 hours; for anti-inflammatory effects compared with nimesulide (in words) / Paw Swelling mm (M ± SD) at 3 hours / Paw Swelling mm (M ± SD) at 6 hours: mice; for anti-inflammatory effects compared with nimesulide (in words): oral; for Paw Swelling mm (M ± SD) at 3 hours / Paw Swelling mm (M ± SD) at 6 hours: orally administered; for Paw Swelling mm (M ± SD) at 3 hours: 0.243 mM/Kg; for Paw Swelling mm (M ± SD) at 6 hours: 0.485 mM/Kg
[3] = system: acetate-induced body twisting; test: acetate-induced body twisting in mice (analgesic effect); details: for analgesic effects compared with nimesulide (in words): oral
[4] = orally administered, 0.485 mM/Kg
[5] = orally administered, 0.97 mM/Kg

| Compound | LD50 value (95% C.L.) [1] | toxicity relative to nimesulide (times lower) [1] | anti-inflammatory effects relative to nimesulide (times stronger) [2] | anti-inflammatory effects compared with nimesulide (in words) [2] | Paw Swelling mm (M ± SD) at 3 hours [2] | Paw Swelling mm (M ± SD) at 6 hours [2] | analgesic effects compared with nimesulide (in words) [3] | No. of body-twistings (M ± SD) at 1 hour [3, 4] | No. of body-twistings (M ± SD) at 1 hour [3, 5] | No. of body-twisting (M ± SD) at 3 hours [3, 4] | No. of body-twisting (M ± SD) at 6 hours ([3]; orally administered, 0.97 (head: mg/Kg), at 6 hours) |
| --- | --- | --- | --- | --- | --- | --- | --- | --- | --- | --- | --- |
| 4-nitro-2-[(4′-methoxy)-phenoxy]-methanesulfonyl aniline [S6] | 2355.5 mg/kg | about 4 times | about 4 times | significantly stronger than that of nimesulide | 0.58 ± 0.67 mm | 1.91 ± 0.66 mm | significantly stronger than nimesulide | 11.4 ± 5.3 | 10.8 ± 11.4 |  |  |
| COc1ccc(Oc2cc([N+](=O)[O-])ccc2NS(C)(=O)=O)cc1.C[C@H]1CC[C@H](N)CC1 [S9, 4-nitro-2-[(4′-methoxy)-phenoxy]-methanesulfonyl aniline, trans-4-methyl-cyclohexylamine salt] | 1223.3 mg/kg | about 2 times | 2 times | significantly stronger than that of nimesulide | 1.18 ± 0.65 mm |  | significantly stronger than nimesulide |  |  | 6.7 ± 6.2 |  |
| CS(=O)(=O)Nc1ccc([N+](=O)[O-])cc1Oc1ccccc1 [Nimesulide, nimesulide, reference compound] |  |  |  |  | 2.10 ± 1.39 mm | 2.58 ± 1.20 mm |  |  | 14.8 ± 11.7 | 11.1 ± 9.7 | 21.00 ± 19.09 |
